Measurements: patent US11319298B2 (Merck Sharp & Dohme Corp., priority 2016, dated 2022)

Each molecule was assayed against T1, human M4 muscarinic acetylcholine receptor (Homo sapiens, UniProt P08173) (assay: human FLIPR-based M4 PAM assay, CHO-K1 cells stably transfected with human M4 receptor and chimeric G-protein Gαqi5). Details: inflection point (IP) of dose response curve; acetylcholine added at 20% of maximum response; CHO-K1 human M4/Gαqi5, FLIPR Tetra.
T1 construct: expressed in transfected cells; host or cells: CHO-K1
T1 sequence (P08173 1-479): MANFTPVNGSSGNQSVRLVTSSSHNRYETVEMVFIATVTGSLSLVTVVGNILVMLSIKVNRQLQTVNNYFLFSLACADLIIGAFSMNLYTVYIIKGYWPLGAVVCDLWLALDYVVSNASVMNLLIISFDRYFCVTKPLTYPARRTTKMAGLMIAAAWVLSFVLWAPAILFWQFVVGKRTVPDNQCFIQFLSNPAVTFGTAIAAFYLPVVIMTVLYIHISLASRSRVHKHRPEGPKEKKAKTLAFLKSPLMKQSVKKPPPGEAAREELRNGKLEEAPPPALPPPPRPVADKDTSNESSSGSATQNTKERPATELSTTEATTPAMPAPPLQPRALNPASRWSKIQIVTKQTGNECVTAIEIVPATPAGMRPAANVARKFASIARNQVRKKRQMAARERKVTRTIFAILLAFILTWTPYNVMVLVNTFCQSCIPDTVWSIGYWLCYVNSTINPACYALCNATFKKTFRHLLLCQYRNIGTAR
Format: cell-based
Experimental: In a typical experiment the M4 muscarinic acetylcholine receptor modulating activity of the compounds of the present invention was determined in accordance with the following experimental method. CHO-K1 cells stably transfected with human M4 receptor and chimeric G-protein Gαqi5 (Coward P, et al., Analytical Biochemistry, 270:242-248 (1999)) are thawed from liquid N2 storage, resuspended in growth medium, plated in black, clear bottom 384 well plates, and incubated 16-20 hours at 37° C., 5% CO2. On the day of assay, growth medium is removed, the cells are washed 2 times with wash buffer, and cells are incubated in dye loading buffer at 37° C., 5% CO2 for ˜1 hour. Following dye loading the cell plates are placed in a FLIPR Tetra instrument and while monitoring dye fluorescence (excitation […]), 10 uL of test substance at increasing concentrations is added, and fluorescence values are recorded for 4 min. Next, 10 uL of acetylcholine is added (final concentration calculated so as to achieve 20% of the maximum acetycholine response), and the fluorescence reading is continued for 3.5 min. In some cases, a third addition of acetylcholine (final concentration calculated to achieve 70% of the maximal acetylcholine response) is performed. The resulting dose response curves are fit to a 4 parameter logistic equation and the final result is determined as the inflection point (IP) of the curve
CHO-K1 cells stably transfected with human M4 receptor and chimeric G-protein Gαqi5 are thawed from liquid N2 storage, resuspended in growth medium, plated in black, clear bottom 384 well plates, and incubated 16-20 hours at 37° C., 5% CO2.
On the day of assay, growth medium is removed, the cells are washed 2 times with wash buffer, and cells are incubated in dye loading buffer at 37° C., 5% CO2 for ˜1 h. Following dye loading the cell plates are placed in a FLIPR Tetra instrument and while monitoring dye fluorescence ([…]), 10 uL of test substance at increasing concentrations is added, and fluorescence values are recorded for 4 min. Next, 10 uL of acetylcholine is added (final concentration calculated so as to achieve 20% of the maximum acetycholine response), and the fluorescence reading is continued for 3.5 min. In some cases, a third addition of acetylcholine (final concentration calculated to achieve 70% of the maximal acetylcholine response) is performed.

EC50 [nM]	SMILES
871	COc1ccc(OC2CCN(c3nnc(C(=O)NCc4cc(F)c(OC)c(F)c4)cc3C)CC2)cn1 [Example 181, N-(3,5-difluoro-4-methoxybenzyl)-6-{4-[(6-methoxypyridin-3-yl)oxy]piperidin-1-yl}-5-methylpyridazine-3-carboxamide]
342	C=Cc1ncnc(N2CCC(Oc3ccc(OC)nc3)CC2)c1C [Example 243, 4-(4-((6-methoxypyridin-3-yl)oxy)piperidin-1-yl)-5-methyl-6-vinylpyrimidine]
51	Cc1cc(C(=O)NCc2ccccc2)nnc1N1CCC(Oc2cccc(C#N)c2)CC1 [Example 194, N-benzyl-6-[4-(3-cyanophenoxy)piperidin-1-yl]-5-methylpyridazine-3-carboxamide]
635	COc1ccc(OC2CCN(c3nc(C(=O)NCc4ccncc4Cl)nc(Cl)c3C)CC2)cn1 [Example 211, 4-chloro-N-((3-chloropyridin-4-yl)methyl)-6-(4-((6-methoxypyridin-3-yl)oxy)piperidin-1-yl)-5-methylpyrimidine-2-carboxamide]
248	COc1ccc(OC2CCN(c3nc(O)nc(Cl)c3C)CC2)cn1 [Example 235, 4-chloro-6-(4-((6-methoxypyridin-3-yl)oxy)piperidin-1-yl)-5-methylpyrimidin-2-ol]
1490	COc1ccc(OC2CCN(c3ncnc(N4Cc5cccnc5C4)c3C)CC2)cn1 [Example 232, 6-(6-(4-((6-methoxypyridin-3-yl)oxy)piperidin-1-yl)-5-methylpyrimidin-4-yl)-6,7-dihydro-5H-pyrrolo[3,4-b]pyridine]
729	COc1ccc(OC2CCN(c3nc(C(=O)NC(C)C)nc(Cl)c3C)CC2)cn1 [Example 213, 4-chloro-N-isopropyl-6-(4-((6-methoxypyridin-3-yl)oxy)piperidin-1-yl)-5-methylpyrimidine-2-carboxamide]
504	COc1ccc(OC2CCN(c3nnc(C(=O)N4CCc5snc(-c6cccnc6)c5C4)cc3C)CC2)cn1 [Example 203, 5-[(6-{4-[(6-methoxypyridin-3-yl)oxy]piperidin-1-yl}-5-methylpyridazin-3-yl)carbonyl]-3-pyridin-3-yl-4,5,6,7-tetrahydroisothiazolo[4,5-c]pyridine]
2700	COc1ccc(OC2CCN(c3ncnc(-c4ccc(F)cc4)c3C)CC2)cn1 [Example 257, 4-(4-fluorophenyl)-6-(4-((6-methoxypyridin-3-yl)oxy)piperidin-1-yl)-5-methylpyrimidine]
156	COc1ccc(OC2CCN(c3nc(NCCO)nc(Cl)c3C)CC2)cn1 [Example 228, 2-((4-Chloro-6-(4-((6-methoxypyridin-3-yl)oxy)piperidin-1-yl)-5-methylpyrimidin-2-yl)amino)ethan-1-ol]
1130	Cc1cncc(-c2ncnc(N3CCC(Oc4cccc(C#N)c4)CC3)c2C)c1 [Example 247, 3-((1-(5-methyl-6-(5-methylpyridin-3-yl)pyrimidin-4-yl)piperidin-4-yl)oxy)benzonitrile]
1870	CNC(=O)c1cc(C)c(N2CCC(Oc3ccc(OC)nc3)CC2)nc1C [Example 189, 6-{4-[(6-methoxypyridin-3-yl)oxy]piperidin-1-yl}-N,2,5-trimethylpyridine-3-carboxamide]
693	COc1ccc(OC2CCN(c3nnc(C(=O)NC4Cc5ccccc5C4)cc3C)CC2)cn1 [Example 177, N-(2,3-dihydro-1H-inden-2-yl)-6-{4-[(6-methoxypyridin-3-yl)oxy]piperidin-1-yl}-5-methylpyridazine-3-carboxamide]
413	COc1ccc(OC2CCN(c3ncnc(N(C)CCc4ccccn4)c3C)CC2)cn1 [Example 240, 6-(4-((6-methoxypyridin-3-yl)oxy)piperidin-1-yl)-N,5-dimethyl-N-(2-(pyridin-2-yl)ethyl)pyrimidin-4-amine]

Second part, the molecule before the results:

SMILES	EC50 [nM]
COc1ccc(OC2CCN(c3nc(OC)ncc3C#N)CC2)cc1 [Example 18, 2-methoxy-4-(4-(4-methoxyphenoxy)piperidin-1-yl)pyrimidine-5-carbonitrile]	1890
COc1ccc(OC2CCN(c3ncnc(Cl)c3C)CC2)cn1 [Example 49, 4-chloro-6-(4-((6-methoxypyridin-3-yl)oxy)piperidin-1-yl)-5-methylpyrimidine]	44
COc1ccc(OC2CCN(c3nnc(C(=O)NCc4cccc(C#N)c4)cc3C)CC2)cn1 [Example 153, N-(3-cyanobenzyl)-6-{4-[(6-methoxypyridin-3-yl)oxy]piperidin-1-yl}-5-methylpyridazine-3-carboxamide]	261
Cc1cc(C(=O)NCc2ccncc2)nnc1N1CCC(Oc2ccc3[nH]ccc3c2)CC1 [Example 110, 6-[4-(1H-indol-5-yloxy)piperidin-1-yl]-5-methyl-N-(pyridin-4-ylmethyl)pyridazine-3-carboxamide]	35
Cc1c(Cl)nc(CO)nc1N1CCC(Oc2ccc3c(c2)NCCO3)CC1 [Example 27, (4-chloro-6-(4-((3,4-dihydro-2H-benzo[b][1,4]oxazin-6-yl)oxy)piperidin-1-yl)-5-methylpyrimidin-2-yl)methanol]	112
COc1ccc(OC2CCN(c3nc(C)ncc3C)CC2)cn1 [Example 79, 4-(4-((6-methoxypyridin-3-yl)oxy)piperidin-1-yl)-2,5-dimethylpyrimidine]	235
Cc1cc(C(=O)NC2CCc3cccnc3C2)nnc1N1CCC(Oc2cccc(C#N)c2)CC1 (centres unmarked) [Example 160, 6-[4-(3-cyanophenoxy)piperidin-1-yl]-5-methyl-N-(5,6,7,8-tetrahydroquinolin-7-yl)pyridazine-3-carboxamide]	295
Cc1nc(Cl)c(C)c(N2CCC(Oc3ccc4c(cnn4C)c3)CC2)n1 [Example 56, 5-((1-(6-chloro-2,5-dimethypyrimidin-4-yl)piperidin-4-yl)oxy)-1-methyl-1H-indazole]	60
COc1ccc(OC2CCN(c3nnc(C(=O)NCc4ccc(C#N)cc4)cc3C)CC2)cn1 [Example 171, N-(4-cyanobenzyl)-6-{4-[(6-methoxypyridin-3-yl)oxy]piperidin-1-yl}-5-methylpyridazine-3-carboxamide]	471
Cc1cc(C(=O)N[C@@H]2CCc3ncccc3C2)nnc1N1CCC(Oc2cccc(C#N)c2)CC1 [Example 130B, (R)-6-[4-(3-cyanophenoxy)piperidin-1-yl]-5-methyl-N-(5,6,7,8-tetrahydroquinolin-6-yl)pyridazine-3-carboxamide]	254
COc1ccc(OC2CCN(c3nc(C#N)c(C(N)=O)cc3C)CC2)cn1 [Example 112, 2-cyano-6-{4-[(6-methoxpyridin-3-yl)oxy]piperidin-1-yl}-5-methylpyridine-3-carboxamide]	41
COC(=O)c1cc(C)c(N2CC[C@H](Oc3ccc(OC)nc3)[C@H](F)C2)nn1 [Example 40, methyl 6-((3R,4S)-3-fluoro-4-((6-methoxypyridin-3-yl)oxy)piperidin-1-yl)-5-methylpyridazine-3-carboxylate]	290
Cc1cc(C(=O)NCc2ccncc2)nnc1N1CC[C@@H](Oc2cccc(C#N)c2)[C@@H](F)C1 [Example 115, 6-[(3S,4R)-4-(3-cyanophenoxy)-3-fluoropiperidin-1-yl]-5-methyl-N-(pyridin-4-ylmethyl)pyridazine-3-carboxamide]	61
Cc1cc(C(=O)N[C@@H]2CCc3cccnc3C2)nnc1N1CCC(Oc2cccc(C#N)c2)CC1 [Example 164B, (R)-6-[4-(3-cyanophenoxy)piperidin-1-yl]-5-methyl-N-(5,6,7,8-tetrahydroquinolin-7-yl)pyridazine-3-carboxamide]	338
Cc1cc(C(=O)NCc2ccncc2)nnc1N1CCC(Oc2ccccc2)CC1 [Example 114, 5-methyl-6-(4-phenoxypiperidin-1-yl)-N-(pyridin-4-ylmethyl)pyridazine-3-carboxamide]	53
